Laboratory results reported in a melting point compilation (Tetko et al.; mined from patent text by program, amines drawn as free bases though some values may be those of a salt).

Row | Structure (SMILES) | melting point [°C]
1 | CN1CNC(=S)N(c2ccc(Cl)cc2)C1 | 178 to 179
2 | O=S1(=O)NCNc2ccc(Br)cc21 | 200 to 204
3 | Cc1ccc(-c2nc(C)c3ccccc3n2)nc1-c1ccccc1 | 141 to 143
4 | Cc1ccc(S(=O)(=O)NCC(Cc2ccccc2)NS(=O)(=O)c2ccc(C)cc2)cc1 (stereo unspecified) | 128 to 131
5 | NC(=O)CCc1conc1-c1ccc(Cl)cc1 | 158 to 159
6 | COn1nnc2ccc(Cn3ccnc3)cc21 | 132
7 | Cn1c(C=NNC(N)=S)cnc1[N+](=O)[O-] | 282 to 287
8 | Cc1cc(-c2nc3c(C)ccnn3c2-c2ccnc(NC(=O)c3ccc(F)cc3)c2)ccc1F | 243 to 244
9 | C=C(COc1ccccc1C=O)C(=O)OC | 50 to 52
10 | O=C(Nc1ccccc1)n1[nH]c(C(F)(F)F)cc1=O | 109 to 110
11 | COc1cc(NS(=O)(=O)CCCCl)cc(OC)c1 | 68 to 71
12 | CC#CC(=O)Nc1ccc(-n2nc(C(F)(F)F)cc2C(F)(F)F)cc1 | 220 to 221
13 | Cc1cc(-n2cnnn2)ccc1[N+](=O)[O-] | 166 to 168
14 | COc1ccc(-c2ccnnc2)cc1OC1CCCC1 | 100 to 102
15 | COC(=O)Nc1nc2cc(C(N)c3ccccc3)ccc2[nH]1 (stereo unspecified) | > 232
16 | O=c1oc2ccccc2c2c1CN(CCN1CC3CCCC(C3)C1)CC2 | 129 to 130
17 | OCc1ccc2ccn(C3CCN(CCc4ccccc4F)CC3)c2c1 | 117 to 118
18 | CC1(C)CCC(C)(C)c2cc(-c3ccc4cc(C(=O)O)cc(O)c4c3)ccc21 | 299
19 | CN=C(NS(=O)(=O)N1CCCCC1)C1=NN(c2ccc(Cl)cc2)C(c2ccccc2)C1 (stereo unspecified) | 141 to 144
20 | c1ccc2c(CC3CCCCC3)c[nH]c2c1 | 71 to 73
21 | Nc1nc(N)c2c(ccc3c2c2c(n3Cc3ccccc3)CCCC2)n1 | 224 to 226
22 | CC(=O)NS(=O)(=O)c1cccc(NC(=O)NC2N=C(c3ccccc3F)c3ccccc3N(CC(=O)N3CC4CCC(CC4)C3)C2=O)c1 (racemic) | 193 to 203

Row | Structure (SMILES) | melting point [°C]
23 | Nc1nc2ccccc2c2c1ncn2CCOCCCc1cccnc1 | 125 to 128
24 | O=C(NCCc1ccccn1)Nc1ccccc1[N+](=O)[O-] | 182
25 | O=C(Nc1nccs1)C1C(=O)Sc2cc(Cl)ccc21 (stereo unspecified) | 276 to 289
26 | Nc1ccc(OC(F)(F)F)cc1C=O | 42 to 44
27 | O=c1[nH]c(=O)n(C2CC(OCc3ccccc3)C(COCc3ccccc3)C2O)cc1I (stereo unspecified) | 165
28 | CN(C)Cc1nnc2n1-c1ccc(C(F)(F)F)cc1C(c1ccccc1)=[N+]([O-])C2 | 188 to 190
29 | O=S(=O)(c1ccc(O)cc1)c1c(-c2ccccc2)oc2ccccc12 | 166 to 168
30 | O=C1[C@H]2CCC[C@H]2Nc2ccccc2N1Cc1cccc2ccccc12 (relative stereo) | 126 to 128
31 | O=C(Nc1ccc(C(F)(F)F)cc1)N1CCC2Cc3ccccc3C2=N1 (stereo unspecified) | 122 to 124
32 | COC(Oc1cc(Cl)c(Cl)c(Cl)c1)C(=O)O (stereo unspecified) | 101 to 104
33 | O=[N+]([O-])C=Cc1ccc(O)c(Cl)c1 | 127 to 129
34 | NS(=O)(=O)c1ccc(-c2c(-c3ccccc3)noc2COCC(F)(F)C(F)(F)CO[N+](=O)[O-])cc1 | 46
35 | CCCCCCCCCCCCCCCCNc1ccc(C(=O)NS(=O)(=O)c2ccc(C)cc2)cc1 | 123 to 124
36 | Cn1nc(-c2c(Cl)cccc2Cl)nc1-c1ccc(Br)s1 | 130 to 132
37 | CCCCCCCCCCCCCCCCCCOc1ccc(C(=O)Nc2ccc(O)cc2)cc1 | 193
38 | C#CC1(c2ccc(OC)c(OC3CCCC3)c2)CCC2(CC1)OCCO2 | 53.5 to 55
39 | Cc1cc(CO)c(C)cc1O | 164 to 165
40 | Cc1cccc(-c2[nH]c(C(C)C)nc2-c2cccc(-c3ccc([N+](=O)[O-])cc3)c2)n1 | 95 to 105
41 | COc1ccc(Nc2ccccc2)c2ccccc12 | 108 to 110
42 | CC(C#N)c1ccc(Cl)nn1 (stereo unspecified) | 65
43 | Cc1cccc(-c2nccc(O)n2)c1 | 148 to 150

Next, values leading:

Row | melting point [°C] | Structure (SMILES)
44 | 123 to 124 | C/C(=C\c1ccc(CO)cc1)c1ccc2c(c1)C(C)(C)CCC2(C)C
45 | 119 to 121 | CC(=O)Nc1ccc(C(=O)NC(C)(C)C)cc1
46 | 107 to 108 | Cc1c(C)c2c(c(C)c1NCc1ccccc1)C(c1ccccc1)CO2 (stereo unspecified)
47 | 158 to 161 | O=C(O)CCCCCNC(=O)c1cn2c3c(cccc13)CCC2
48 | 247 to 248 | CC[C@H](C)[C@H](NC(C)=O)C(=O)N[C@H](C(=O)N[C@@H](CC1CCCCC1)[C@@H](O)[C@@H](O)CC(C)C)[C@@H](C)CC
49 | 209 to 211 | CCC(=O)c1c(-c2ccncc2)[nH]c(-c2ccncc2)c1CC
50 | 219 to 222 | O=c1ccc(Cl)cn1[C@@H]1c2cc([N+](=O)[O-])ccc2OCC[C@H]1O (relative stereo)
51 | 160 to 162 | CS(=O)(=O)NC(=O)c1cccc(-c2ccc(Cl)c(C(=O)NCC34CC5CC(CC(C5)C3)C4)c2)n1
52 | 121 to 122 | CC1(C)OC(=O)C(OC2CCCC2)=C1c1ccc(S(C)(=O)=O)cc1
53 | 181 to 183 | COC(=O)c1ccc2nc3n(c(=O)c2c1)CCC3=Cc1ccccc1C
54 | 137 to 138 | COc1cc(C(C)C)c2c(c1)S(=O)(=O)N(COC(=O)c1c(C)cc(C)cc1C)C2=O
55 | 85 to 86 | O=C(O)Cc1cccc(-c2ccccc2OC2OC(CO)C(O)C(O)C2O)c1 (stereo unspecified)
56 | 49.5 to 52 | COC(=O)C(C)c1ccc2cc(OC(=O)CO)ccc2c1 (stereo unspecified)
57 | 105 | CC(CCCc1ccccc1)n1nnc2c(=O)[nH]c(C(=O)c3ccccc3)nc21 (stereo unspecified)
58 | 174 | C=CC(=O)N1C(C)(C)CC(OC(=O)C(C#N)(Cc2cc(C(C)(C)C)c(O)c(C(C)(C)C)c2)Cc2cc(C(C)(C)C)c(O)c(C(C)(C)C)c2)CC1(C)C
59 | 154 to 156 | CC(C)(C)OC(=O)N(Cc1ccc(C(=O)NCC(=N)NO)cc1)c1ccc(C(C)(C)C)cc1
60 | 125 to 127 | COc1cc(C(=O)O)ccc1Cc1cccc2ccc(CCCCC(=O)N(C)C)cc12
61 | 208 to 209 | CC1(C(=O)c2c[nH]c3ncc(-c4cccc(N5CCOCC5)c4)nc23)CCCCC1
62 | 113 to 115 | CC1SCN(CCCCN2CCN(c3nsc4ccccc34)CC2)C1=O (stereo unspecified)
63 | 131 to 134 | COc1ccc(C(=O)c2cccs2)c2occ(C)c12
64 | 198 to 200 | CCOCc1nc2c(N)nc3c(c2n1NCCCNC(C)=O)CCCC3
65 | 318 to 320 | O=C1CCC(N2C(=O)c3ccc(CNC(=O)c4cc5ccccc5s4)cc3C2=O)C(=O)N1 (stereo unspecified)
66 | 193 to 195 | O=Cc1cc([N+](=O)[O-])c(O)c(O)c1Cl
67 | 94 to 96 | O=C(c1ccc(OS(=O)(=O)C(F)(F)F)cc1OS(=O)(=O)C(F)(F)F)c1ccc(OS(=O)(=O)C(F)(F)F)cc1OS(=O)(=O)C(F)(F)F
68 | 172 | CNC(=O)N(CCN1CCC(Nc2nc3ccccc3n2Cc2ccc(F)cc2)CC1)c1nccs1
69 | 183 to 185 | CS(=O)(=O)c1cc(Cl)ccc1C(=O)c1cnoc1C1CC1
70 | 86 to 89 | COC(=O)C1CCC2C3CCC4CC(=O)CCC4(C)C3C(NCCC(C)C)CC12C (stereo unspecified)

Row | melting point [°C] | Structure (SMILES)
71 | 161 to 163 | CCOc1nc2c(c3ccccc13)c1cc(Cl)ccc1n2C
72 | 172 to 174 | C=C(F)CONC(=O)c1nc(-c2ccc(Cl)c(OC)c2F)cc(N)c1Cl
73 | 176 to 178 | CC(C)=NOCc1nc2c(N)nc3cc(Br)cnc3c2n1CC(C)C
74 | 102 to 103 | CC(C)Oc1ccc(CCCOc2nn(C)cc2CC(=O)O)c(OCc2ccc(Cl)cc2Cl)c1
75 | 125 | CCCC(=O)Oc1cc(-c2nc3cc(F)ccc3s2)ccc1OC
76 | 189 to 191 | COc1ccc(C(=O)Nc2ccc(Cl)c(Cl)c2)cc1NC(=S)Nc1cc(Cl)cc(Cl)c1
77 | 66.4 | CCCCCCCCCCOc1ccc(C(=O)Oc2ccc(OC(=O)[C@@H]3O[C@@H]3CCC)cc2)cc1Cl
78 | 82 to 84 | COc1nc(C(F)(F)C(F)(F)F)cc(=O)n1-c1cc(C(=O)OC(C)C)c(Cl)cc1F
79 | 77 to 99 | COc1cc2c(cc1Nc1ncc(Cl)c(Nc3ccccc3S(C)(=O)=O)n1)CCN(CC(=O)N(C)C)CC2
80 | 82 to 84 | CC(C)NCC(O)COc1ccccc1C1=NN(C)C(=O)CC1 (stereo unspecified)
81 | 166 to 169 | CC(C)(F)c1cnn2c(-c3ccc(F)c(-c4ccc(F)cc4C#N)c3F)cnc2n1
82 | 94.5 to 96 | CC(=O)NCc1ccc(CN2CCN(c3ccc(F)cc3[N+](=O)[O-])CC2)cc1
83 | 170 to 171 | O=S(=O)(Nc1ccc2c(OCc3ccc(-c4cccc(Cl)c4)cc3)cccc2c1)C(F)(F)F
84 | 39 to 42 | CC(C)(C)OC(=O)NCCCCCC(=O)O
85 | 171 to 172 | Cc1cc(C(=O)C(C#N)C(=O)Nc2ccc(F)cc2)c(C)n1C (stereo unspecified)
86 | 186 to 188 | NS(=O)(=O)Cc1ccc2[nH]cc(CCN3C(=O)c4ccccc4C3=O)c2c1
87 | 220 to 225 | COc1ccc(-c2cccc(C(=O)O)c2)c2c1OC(C)(C)C2
88 | 96 to 98 | O=C(NCCCCCCCCCCCCOC(=O)Oc1ccc([N+](=O)[O-])cc1)OC1CCN(C(=O)Oc2ccc(Oc3ccccc3)cc2)CC1
89 | 146 to 148 | CCCCOC(=O)COc1ccc(C(=O)Nc2cc(C)ccc2Sc2ccccc2-c2nnn[nH]2)cc1
90 | 92 to 93 | CCOc1cccc(CC(=O)O)c1OCCCc1cn(-c2ccc(Cl)cn2)nc1C(CC)CC
91 | 162 to 165 | O=C(O)C1=Cc2cc(C(F)(F)C(F)(F)F)ccc2OC1C(F)(F)F (stereo unspecified)
92 | 179 to 181 | O=C(NCc1ccccn1)c1ccc(N2CCN(C(=O)c3ccccc3C(F)(F)F)CC2)nn1
93 | 33 | CCSc1cc(C(C)(C)C)c(O)c(C(C)(C)C)c1
94 | 301 to 304 | O=C1c2c(O)ccc(O)c2C(=O)c2c(F)ccc(F)c21
95 | 106 to 108 | COc1cc(C(=O)C#CCOC(=O)c2cc(OC)c(OC)c(OC)c2)cc(OC)c1OC
96 | 151 to 152 | CCCCc1nc(C(C)(C)O)c(C#N)n1C(c1ccccc1)(c1ccccc1)c1ccccc1
